Source: patent publication US20260250318A1, “COMPOSITIONS AND METHODS FOR CROSSING THE BLOOD BRAIN BARRIER” (VOYAGER THERAPEUTICS, INC., priority 2022, published 2026)

What follows are sequences tested on brain (assay: Maturation of TTM-001 capsid, NGS enrichment in brain of CD-1 Outbred mice). Conditions: NGS fold-enrichment of TTM-001 matured AAV capsid variants in the brain of CD-1 Outbred mice; intravenous 1.0×10^12 VG/dose; 14 days in life; RNA; relative to non-matured TTM-001 control.
Assay type: in vivo
Method in brief: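 Brain enrichment read by NGS after RNA extraction and RT-PCR, expressed as fold ratio over the matching parental capsid (TTM-001 or TTM-002). Libraries, mutated around loop IV positions 449/450–466, were injected intravenously (tail vein, 1.0×10^12 VG/dose) into three female CD-1 mice; brains harvested at 14 days.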

| Sequence | Fold enrichment over TTM-001 |
| --- | --- |
| KTINGSGSPHVLWQNQQT | 4.533 fold |
| KTINGSGSPHSKLMRQQT | 2.056 fold |
| KEVMGSGSPHSKAQNQQT | 2.047 fold |
| KTINGSGSPHSKAWYPQT | 2.406 fold |
| KTINGSGSPHSKLNKQQT | 3.181 fold |
| KTINGSSSPHWLAQNQQT (peptide inserted in AAV capsid) | 2.490 fold |
| KTINGSGSPHSKAQFSVT | 2.015 fold |
| KTINMLRSPHSKAQNQQT | 2.000 fold |
| KTINGSGSPHSLRYNQQT | 2.462 fold |
| KTINGVLSPHWKAQNQQT | 2.199 fold |
| KTINGSGSPHSKARGTQT | 2.505 fold |
| KTINGSGSPHYLVQNQQT | 3.819 fold |
| KTINGSVSPHYVAQNQQT (peptide inserted in AAV capsid) | 2.022 fold |
| KTINGTPSPHRKAQNQQT | 2.244 fold |
| KTINGSGSPHSALWNQQT | 2.261 fold |
| KTINGRYSPHSKAQNQQT | 2.080 fold |
| KTINGSGSPHSSLCNQQT | 2.592 fold |
| KTINGSGSPHSKAQNARH | 2.127 fold |
| KTINGSGSPHSKAQQSRT | 2.337 fold |
| KTINGSGSPHSKGGRQQT | 2.164 fold |
| KTINGSCSPHPLAQNQQT | 3.086 fold |
| KTINGSGSPHSKRTSQQT | 2.857 fold |
| KTINGSGSPHSKALRSQT | 2.648 fold |
| KTINGSGSPHSKMRPQQT | 2.652 fold |

| Sequence | Fold enrichment over TTM-001 |
| --- | --- |
| KTINGSGSPHSKRNGQQT | 3.350 fold |
| KPPTGSGSPHSKAQNQQT | 2.270 fold |
| KTINGSGSPHSKASRGQT | 2.182 fold |
| KTINGTRSPHTKAQNQQT | 2.203 fold |
| KTINGSGSPHSKLSRQQT | 2.380 fold |
| KTINGSGSPHSKARYSQT | 2.369 fold |
| KTINLIWSPHSKAQNQQT | 2.035 fold |
| KTINGSGSPHSKWLVQQT | 2.333 fold |
| KTINGSLSPHSWAQNQQT | 2.885 fold |
| KTINGSGSPHSTRPNQQT | 2.598 fold |
| KTIRSKGSPHSKAQNQQT | 2.559 fold |
| KTINGSGSPHSKARQQQT | 2.244 fold |
| KTINGSGSPHSKAQLHRT | 2.618 fold |
| KTINGSGSPHSVYRNQQT | 2.432 fold |
| KTINGSGSPHSKAWLMQT | 2.015 fold |
| KTINGSGSPHSKAQFWVT | 2.050 fold |
| KTINGSGSPHSKAQLYRT | 4.108 fold |
| KTINGSRSPHVRAQNQQT (peptide inserted in AAV capsid) | 2.412 fold |
| KTINGSGSPHSKATRQQT | 2.505 fold |
| KTINGSGSPHSFITNQQT | 2.868 fold |
| KTINGSGSPHSKARSYQT | 2.382 fold |
| KTINGSGSPHGLWQNQQT | 2.181 fold |
| KTINGSLSPHIYAQNQQT | 2.536 fold |
| KTINGSGSPHSSRRNQQT | 4.920 fold |

| Sequence | Fold enrichment over TTM-001 |
| --- | --- |
| KTINGSGSPHSKARLTQT | 2.223 fold |
| KTINGSGSPHSKRLAQQT | 2.397 fold |
| KTINGSGSPHSKASKNQT | 2.171 fold |
| KTINFLRSPHSKAQNQQT | 3.331 fold |
| KTINGSGSPHSLCSNQQT | 3.413 fold |
| KTINGSGSPHSYLLNQQT | 2.147 fold |
| KTINGSGSPHSKAQLVLT | 2.508 fold |
| KTINGSGSPHSWGSNQQT | 2.473 fold |
| KTINGSGSPHSKAFARQT | 3.082 fold |
| KTINGSGSPHSKSHRQQT | 2.145 fold |
| KTINGSGSPHSSCLNQQT | 2.471 fold |
| KTINGSGTPHSKAQNQQT | 2.259 fold |
| KTINGSGSPHSKRPFQQT | 2.076 fold |
| KTINGSLSPHLFAQNQQT | 2.285 fold |
| KTINGSGSPHEHNQNQQT | 2.199 fold |
| KTINGSGSPHTLYQNQQT | 3.117 fold |
| KTINGSGSPHSKAQNEVH | 2.272 fold |
| KTINGSGSPHTLFQNQQT | 2.136 fold |
| KTINGSGSPHSKAQLPWT | 2.169 fold |
| KTINGSGSPHSKTNRQQT | 2.169 fold |
| KTINGSGSPHSKAQSVKT | 2.464 fold |
| KTINGSGSPHSKTIRQQT | 2.453 fold |
| KTINGSGSPHSKAQNAKL | 2.486 fold |
| KTINGSGSPHSKAQCRLT | 2.304 fold |

| Sequence | Fold enrichment over TTM-001 |
| --- | --- |
| KTINGRHSPHLKAQNQQT | 2.369 fold |
| KTINGSGSPHSKRAAQQT | 3.838 fold |
| KTINGSGSPHSRLKNQQT | 3.156 fold |
| KTINGSGSPHSKAQATRT | 2.019 fold |
| KTINGSGSPHSEIVNQQT | 4.931 fold |
| KTINGSGSPHSMFPNQQT | 2.419 fold |
| KTINGSGSPHSLRRNQQT | 4.985 fold |
| KTINGSGSPHSKCTLQQT | 2.808 fold |
| KTINGSGSPHSVLFNQQT | 2.194 fold |
| KTINGTSSPHCKAQNQQT | 2.017 fold |
| KTINGSGSPHSKLCLQQT | 2.562 fold |
| KTINGSGSPHSKLRLQQT | 2.065 fold |
| KTINGSGSPHSKAQVVLT | 2.438 fold |
| KTINGLLSPHRKAQNQQT | 3.026 fold |
| KTINGSGSPHSKRASQQT | 2.173 fold |
| KTINGSGSPHSKARGYQT | 2.492 fold |
| KTINGSGSPHSKRFLQQT | 3.359 fold |
| KTINGSGSPHSKAFPRQT | 3.220 fold |
| KTINRRLSPHSKAQNQQT | 2.678 fold |
| KTINGSGSPHSGLWNQQT | 2.350 fold |
| KTINGSGSPHCSSQNQQT | 2.253 fold |
| KTINGSGSPHLRFQNQQT | 2.186 fold |
| KTINGLVSPHCKAQNQQT | 2.605 fold |
| KTINGSGSPHSKRSLQQT | 2.270 fold |

| Sequence | Fold enrichment over TTM-001 |
| --- | --- |
| KTINGSGSPHSKRGLQQT | 2.402 fold |
| KTINGSGSPHSKGIRQQT | 2.497 fold |
| KTINGSGSPHSKAVRNQT | 2.516 fold |
| KTINGSGSPHSKATRNQT | 2.756 fold |
| KTINGSHSPHRKAQNQQT | 2.028 fold |
| KGHEGSGSPHSKAQNQQT | 2.151 fold |
| KTINGSGSPHSKARFTQT | 2.233 fold |
| KTINGSGSPHSKARNKQT | 2.108 fold |
| KTINGIRSPHTKAQNQQT | 2.793 fold |
| KTINGSGSPHSKAQLVVT | 3.654 fold |
| KTINGSCSPHSLAQNQQT | 2.099 fold |
| KTINGSGSPHSKALRYQT | 3.076 fold |
| KTINGSGSPHSKGRSQQT | 2.080 fold |
| KTINGSVSPHFMAQNQQT (peptide inserted in AAV capsid) | 2.287 fold |
| KTINGSGSPHLVCQNQQT | 2.493 fold |
| KTINGSGSPHSKAQHLRT | 2.741 fold |
| KTINGSGSPHSIFSNQQT | 2.110 fold |
| KTINGSGSPHSKALWRQT | 2.015 fold |
| KTINGSGSPHSKARGVQT | 2.181 fold |
| KTINGSGSPHSKLCVQQT | 2.659 fold |
| KTINGSGSPHSKAQLAKT | 2.238 fold |
